Columns and labels:
Assay type in all cases: cell-based
[1] = tested on: Src; assay: Tyrosine phosphorylation by Western blotting: Src phosphorylation in TNBC cell lines
Protocol: (§1) BT20 and MDA-MB468 triple negative (HER2-, ER-, PR-) were obtained from American Type Culture Collection (ATCC N°HTB19, and ATCC N°HTB132, respectively). The LumB, and Her2-, ER-, PR-negative IJG-1731 cell line was previously established at the laboratory as described (Mombelli et al. Sci Rep. 2015 Jul. 8; 5:11874.) BT20 and IJG-1731 cells were grown in complete RPMI-1640 media with L-glutamine, supplemented with 10% fetal calf serum (FCS) and penicillin—streptomycin solution (100 μg/ml each) (Life technology, Saint-Aubain, France). MDA-MB468 cells were grown in a complete DMEM-F12 media with glutamine, 10% FCS and penicillin—streptomycin. All cells were maintained in a humidified 5% CO2 atmosphere at 37° C. All experiments were conducted with cells at confluency and starved for an overnight.
(§2) Cells (3×10^5) were seeded in 6-well plates in complete medium for 24 hours then starved for another overnight. Cells were then stimulated with IL-17E (10 ng/ml), EGF (10 ng/ml), or a combination of both for 30 min in serum-free medium. Cells were then lysed in 1% Triton X100 buffer and left on ice for 1 hours. Protein samples were then subjected to 8% SDS-PAGE. Western blotting using specific antibodies assessed then the phosphorylation of the various kinases.

[2] = tested on: EGFR; assay: Tyrosine phosphorylation by Western blotting: EGFR phosphorylation in TNBC cell lines; details: for IL-17E- and EGF-induced phosphorylation of Y1086 EGFR: AZM475271 10 μM pre-treatment, FIG. 2A
Protocol: BT20 and MDA-MB468 triple negative (HER2-, ER-, PR-) were obtained from American Type Culture Collection (ATCC N°HTB19, and ATCC N°HTB132, respectively). […] MDA-MB468 cells were grown in a complete DMEM-F12 media with glutamine, 10% FCS and penicillin—streptomycin. All cells were maintained in a humidified 5% CO2 atmosphere at 37° C. All experiments were conducted with cells at confluency and starved for an overnight.
as §2

[3] = tested on: EGFR; assay: Immunofluorescence microscopy: localization of EGFR; details: MDA-MB468; 10 ng/ml, 2 hours; FIG. 4A, FIG. 7
Protocol: as §1
Cells (4.10^3) were grown on Lab-Tek chambers slide in their respective complete culture medium for 24 hours then starved for an overnight. Cells were then stimulated with IL-17E (long/ml), EGF (10 ng/ml) or a combination of both for 2 hours at 37° C., washed, and fixed with 4% paraformaldehyde (PFA)-PBS solution at 4° C. […] Slides were mounted with mounting medium containing Dapi then visualized with a Leica DMRB fluorescence microscope and images analysis was performed with the Archimed Software (Microvision).

[4] = tested on: STAT3; assay: Cellular fractionation and Western blotting: STAT3 and pSTAT3 translocation to the nucleus; details: MDA-MB468 fractions
Protocol: as §1
Cells (3×10^5) were seeded in 6-well plates in complete medium for 24 hours then starved for another overnight. Cells were stimulated for 2 hours at 37° C. with IL-17E (10 ng/ml), EGF (long/ml), or a combination of both as indicated. Cells were then washed with PBS and lysed in a lysis buffer (HEPES 10 mM, MgCl2 15 mM KCl 10 mM, DTT 0.5 mM, PMSF 0.2 mM, 1 mM Na3VO4, 10 mM NaF, 0.5% Nonidet P-40). […] Protein concentrations were determined by using Bradford method. […]

Molecule: COc1ccc(Cl)c(Nc2ncnc3cc(OCC4CCN(C)CC4)c(OC)cc23)c1 [AZM475271]
- IL-17E- and EGF-induced Src phosphorylation ([1]; TNBC cell lines pre-treated with AZM475271 (10 μM), then stimulated with IL-17E or EGF (10 ng/ml), FIG. 2A): inhibited
- IL-17E- and EGF-induced phosphorylation of Y1086 EGFR ([2]; IJG-1731 and BT20 cell lines): abolished
- IL-17E- and EGF-induced phosphorylation of Y1086 EGFR ([2]; MDA-MB468): to a lesser extent
- EGFR activation downstream IL-17E or IL-17B ([2]; TNBC cells, Src specific inhibitor, discussion, FIG. 6): inhibition

Molecule: EGF: epidermal growth factor, EGFR ligand used as stimulus (NSDSECPLSHDGYCLHDGVCMYIEALDKYACNCVVGYIGERCQYRDLKWWELR; Epidermal growth factor; UniProt P01133 971-1023, looked up)
- phosphorylation of Src at Y416 at suboptimal concentrations ([1]; MDA-MB468, IL-17E 1 ng/ml alone or EGF 0.1-1 ng/ml alone, FIG. 3): failed to induce any significant phosphorylation
- translocation of EGFR (immunofluorescence) [3]: induced strong translocation of EGFR from the membrane to the nucleus
- phosphorylation of STAT3α and β [4]: induced the phosphorylation

From patent US20190151346A1, “COMBINATIONS THERAPIES FOR THE TREATMENT OF CANCER” (INSERM (INSTITUTE NATIONAL DE LA SANTÉ ET DE LA RECHERCHE …, priority 2016, published 2019)
